How the values were obtained:
Assay type in all cases: physicochemical
[1] = Solubility of compounds in toluene
Experimental: The solubility of the compounds in the toluene were determined as follows: • 1. 1000 mg of toluene solution was placed in the transparent glass sample bottle. • 2. A certain mass of the compound was added into the toluene, and oscillated until completely dissolved. • 3. After the compound was completely dissolved, a certain mass of the compound was further added into the toluene, and oscillated. • 4. The above steps were repeated until the compound wasn't dissolved any more. • 5. The total mass of the compound added was recorded and the solubility was obtained by calculation.

[2] = Absorption spectrum, emission spectrum and extinction coefficient in toluene solution; conditions: for Molar extinction coefficient of the toluene solution: maximum absorption peak
Experimental: The extinction coefficients of the compounds and their absorption and emission spectrums in the solution were determined as follows: • 1. The compound with a certain amount of substance concentration in the toluene was prepared in a volumetric flask. • 2. The absorption spectrum of the solution was measured by using an ultraviolet-visible spectrophotometer (Puxi T9s) to obtain the absorption peak wavelength. • 3. The absorbance of the maximum absorption peak divided by the amount of substance concentration is the molar extinction coefficient of the compound. • 4. The emission spectrum of the solution was measured by using a fluorescent spectroscope (Hitachi, F-4700 FL Spectrophotometer) to obtain the emission peak wavelength.

[3] = Absorption and emission spectrum in spin-coated film; conditions: spin-coated film
Experimental: The absorption and emission spectrums of the compounds in the film were determined as follows: • 1. The compound with a certain concentration in the toluene was prepared. • 2. The prepared toluene solution was dropped onto a clean glass substrate. • 3. Spin-coating, and then heating at the 80° C. for 1 min. • 4. The absorption spectrum of the film was measured by using an ultraviolet-visible spectrophotometer (Puxi T9s) to obtain the absorption peak wavelength. • 5. The emission spectrum of the film was measured by using a fluorescent spectroscope (Hitachi, F-4700 FL Spectrophotometer) to obtain the emission peak wavelength.

[4] = UV stability of compounds in toluene (absorbance decay to 80%); conditions: 1×10^−5 mol/L in toluene, UV LEDs 365 nm & 255 nm, time to 80% absorbance, normalized to comparative compound 2 as 100%
Experimental: The compound was dissolved in the toluene with a concentration of 1×10^−5 mol/L. 3 mL solution was added to the cuvette with a lid and the lid was screwed on tightly, then the cuvette was placed in the ultraviolet-visible spectrophotometer to test the absorption spectrum, the absorbance of the maximum absorption peak was recorded as the initial value. The cuvette was placed at a distance of 12 cm from the UV LEDs (365 nm & 255 nm), irradiated for a period and tested its absorption spectrum, then continued to be irradiated after the test, and repeated until the absorbance decayed to 80% of its initial value, the time was recorded as t80.

[5] = Blue light stability of the film (luminance decay); conditions: about 800 nm evaporated film, blue LED 460 nm, 3000 cd/m^2, versus comparative compound 1
Experimental: A film about 800 nm was evaporated, encapsulated with a glass cover plate, then placed at 2.5 cm above the blue LED (460 nm, 3000 cd/m^2) to test the luminance value with a luminance meter (Fstar, CS-2000A). The luminance value of the first test was recorded as the initial value, and the luminance was tested by irradiating for a period of time to obtain the luminance decay curve, see FIG. 34.

| SMILES | Solubilities(/100 g, toluene) [1] | Absorption peak of the toluene solution [2] | Emission peak of the toluene solution [2] | Molar extinction coefficient of the toluene solution [2] | Absorption peak of the film [3] | Emission peak of the film [3] | Times t80 [4] | stability of the film under blue-light illumination (luminance decay) [5] |
| --- | --- | --- | --- | --- | --- | --- | --- | --- |
| Cc1cccc(C)c1N(c1cc(C(C)(C)C)cc(C(C)(C)C)c1)c1cc(N(c2cc(C(C)(C)C)cc(C(C)(C)C)c2)c2c(C)cccc2C)c2ccc3c(N(c4cc(C(C)(C)C)cc(C(C)(C)C)c4)c4c(C)cccc4C)cc(N(c4cc(C(C)(C)C)cc(C(C)(C)C)c4)c4c(C)cccc4C)c4ccc1c2c43 [compound 5] | 4.6 g/100 g toluene | 477 nm | 497 nm | 5.6 × 10^4 L · mo 1^−1 | 476 nm | 497 nm | 304% | – |
| CCc1cccc(CC)c1N(c1cc(C(C)(C)C)cc(C(C)(C)C)c1)c1cc(N(c2cc(C(C)(C)C)cc(C(C)(C)C)c2)c2c(CC)cccc2CC)c2ccc3c(N(c4cc(C(C)(C)C)cc(C(C)(C)C)c4)c4c(CC)cccc4CC)cc(N(c4cc(C(C)(C)C)cc(C(C)(C)C)c4)c4c(CC)cccc4CC)c4ccc1c2c43 [compound 8] | 30.1 g/100 g toluene | 484 nm | 501 nm | 5.3 × 10^4 L · mo 1^−1 | 482 nm | 499 nm | 261% | obviously improved UV stability |
| CCc1cccc(CC)c1N(c1ccc(C(C)(C)C)cc1)c1cc(N(c2ccc(C(C)(C)C)cc2)c2c(CC)cccc2CC)c2ccc3c(N(c4ccc(C(C)(C)C)cc4)c4c(CC)cccc4CC)cc(N(c4ccc(C(C)(C)C)cc4)c4c(CC)cccc4CC)c4ccc1c2c43 [compound 9] | 25.9 g/100 g toluene | 482 nm | 500 nm | 5.3 × 10^4 L · mo 1^−1 | 482 nm | 499 nm | 279% | – |
| CCCCCCCCc1ccc(-c2cc(C(C)C)ccc2N(c2cc(F)c(F)c(F)c2)c2cc(N(c3cc(F)c(F)c(F)c3)c3ccc(C(C)C)cc3-c3ccc(CCCCCCCC)cc3)c3ccc4c(N(c5cc(F)c(F)c(F)c5)c5ccc(C(C)C)cc5-c5ccc(CCCCCCCC)cc5)cc(N(c5cc(F)c(F)c(F)c5)c5ccc(C(C)C)cc5-c5ccc(CCCCCCCC)cc5)c5ccc2c3c54)cc1 [compound 13] | >15 g/100 g toluene | 473 nm | 494 nm | 5.9 × 10^4 L · mo 1^−1 | 473 nm | 490 nm | 410% | – |
| CC1CCC(C(C)C)C(Oc2ccc(-c3cc(C(C)C)ccc3N(c3cc(F)c(F)c(F)c3)c3cc(N(c4cc(F)c(F)c(F)c4)c4ccc(C(C)C)cc4-c4ccc(OC5CC(C)CCC5C(C)C)cc4)c4ccc5c(N(c6cc(F)c(F)c(F)c6)c6ccc(C(C)C)cc6-c6ccc(OC7CC(C)CCC7C(C)C)cc6)cc(N(c6cc(F)c(F)c(F)c6)c6ccc(C(C)C)cc6-c6ccc(OC7CC(C)CCC7C(C)C)cc6)c6ccc3c4c65)cc2)C1 (centres unmarked) [compound 15] | >10 g/100 g toluene | 476 nm | 493 nm | 6.8 × 10^4 L · mo 1^−1 | 473 nm | 491 nm | 440% | – |
| CCCCCCCCc1ccc(-c2cc(OC)ccc2N(c2cc(F)c(F)c(F)c2)c2cc(N(c3cc(F)c(F)c(F)c3)c3ccc(OC)cc3-c3ccc(CCCCCCCC)cc3)c3ccc4c(N(c5cc(F)c(F)c(F)c5)c5ccc(OC)cc5-c5ccc(CCCCCCCC)cc5)cc(N(c5cc(F)c(F)c(F)c5)c5ccc(OC)cc5-c5ccc(CCCCCCCC)cc5)c5ccc2c3c54)cc1 [compound 16] | >10 g/100 g toluene | 475 nm | 496 nm | 7.0 × 10^4 L · mo 1^−1 | 476 nm | 496 nm | 383% | – |
| CCCCCCCCc1ccc(N(c2ccc(C(C)C)cc2-c2cc(F)c(F)c(F)c2)c2cc(N(c3ccc(CCCCCCCC)cc3)c3ccc(C(C)C)cc3-c3cc(F)c(F)c(F)c3)c3ccc4c(N(c5ccc(CCCCCCCC)cc5)c5ccc(C(C)C)cc5-c5cc(F)c(F)c(F)c5)cc(N(c5ccc(CCCCCCCC)cc5)c5ccc(C(C)C)cc5-c5cc(F)c(F)c(F)c5)c5ccc2c3c54)cc1 [compound 20] | >10 g/100 g toluene | 485 nm | 504 nm | 5.5 × 10^4 L · mo 1^−1 | 486 nm | 504 nm | 528% | – |
